# Test results: article PMC7413254 (Nature Communications, 2020)
# Read-outs that look alike come from different tables or passages of the source.
# Tests used:
# PfCRT^3D7 [1] = molecular target: T1, PfCRT^3D7 (Plasmodium falciparum, UniProt Q8IBZ9); experiment: cell-based; format: cell-based; conditions: PfCRT3D7 oocytes, total [3H]CQ transport, normalised to the oocyte type control
# Procedure, shortened: (§1)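 Oocytes expressing PfCRT isoforms, or non-expressing controls, were incubated 1.5 h at 27.5 °C in ND96 buffer pH 5.5 (96 mM NaCl, 2 mM KCl, 1 mM MgCl2, 1.8 mM CaCl2, 10 mM MES, 10 mM Tris-base), measuring uptake from acidic medium into cytosol. Oocytes were washed ice-cold, SDS-lysed and counted by scintillation.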
# non-expressing oocytes [2] = experiment: cells; format: cell-based, Xenopus laevis; conditions: non-expressing oocytes, total [3H]CQ transport, normalised to the oocyte type control
# Procedure, shortened: as §1
# PfCRT^Dd2 [3] = molecular target: T2, PfCRT^Dd2 (Plasmodium falciparum, UniProt Q9N623, A220S/I356T/K76T/M74I/N326S/N75E/Q271E/R371I); experiment: [3H]CQ uptake into Xenopus oocytes, cis-inhibition by unlabelled solute; format: cell-based; conditions: PfCRTDd2 oocytes, background [3H]CQ accumulation subtracted, normalised to oocyte type control
# T2 sequence (Q9N623 whole entry A220S/I356T/K76T/M74I/N326S/N75E/Q271E/R371I): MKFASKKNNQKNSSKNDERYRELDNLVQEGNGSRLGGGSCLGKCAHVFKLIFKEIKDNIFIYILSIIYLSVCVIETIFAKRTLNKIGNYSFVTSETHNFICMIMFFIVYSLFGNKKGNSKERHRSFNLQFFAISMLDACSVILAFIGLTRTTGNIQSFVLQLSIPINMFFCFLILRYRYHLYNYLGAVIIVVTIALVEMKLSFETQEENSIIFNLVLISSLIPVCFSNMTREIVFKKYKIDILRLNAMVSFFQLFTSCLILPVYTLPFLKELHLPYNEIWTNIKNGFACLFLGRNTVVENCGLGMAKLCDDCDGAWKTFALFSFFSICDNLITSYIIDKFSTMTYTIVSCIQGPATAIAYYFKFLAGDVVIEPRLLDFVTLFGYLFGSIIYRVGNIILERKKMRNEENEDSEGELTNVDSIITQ
# Procedure, shortened: as §1
# PfCRT^Ecu1110 [4] = molecular target: T3, PfCRT^Ecu1110 (Plasmodium falciparum, UniProt Q9N623, A220S/I356L/K76T/N326D); experiment: as above; format: cell-based; conditions: for Uptake of [3H]CQ (% PfCRTEcu1110 control), cis-inhibition / PfCRT-mediated [3H]CQ transport, cis-inhibition (% PfCRTEcu1110 control): PfCRTEcu1110 oocytes; for Uptake of [3H]CQ (% PfCRTEcu1110 control), cis-inhibition: total [3H]CQ transport, normalised to the oocyte type control; for PfCRT-mediated [3H]CQ transport, cis-inhibition (% PfCRTEcu1110 control): background [3H]CQ accumulation subtracted, normalised to oocyte type control; for [3H]CQ transport (% PfCRTEcu1110 control), cis-inhibition, PfCRTEcu1110: PfCRT-mediated component (background subtracted), sheet title says normalised to PfCRTDd2 control, mean ± SEM, SEM
# T3 sequence (Q9N623 whole entry A220S/I356L/K76T/N326D): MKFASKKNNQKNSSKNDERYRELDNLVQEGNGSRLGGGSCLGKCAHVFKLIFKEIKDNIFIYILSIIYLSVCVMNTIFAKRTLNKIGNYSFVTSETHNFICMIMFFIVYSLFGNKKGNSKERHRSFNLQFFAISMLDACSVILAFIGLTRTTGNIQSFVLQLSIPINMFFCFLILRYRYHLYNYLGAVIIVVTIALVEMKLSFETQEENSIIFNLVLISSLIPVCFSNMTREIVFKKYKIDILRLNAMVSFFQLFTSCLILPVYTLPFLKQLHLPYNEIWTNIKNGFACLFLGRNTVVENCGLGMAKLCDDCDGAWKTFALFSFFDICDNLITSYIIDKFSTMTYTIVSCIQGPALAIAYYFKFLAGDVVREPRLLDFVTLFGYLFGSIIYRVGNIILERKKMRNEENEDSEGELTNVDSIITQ
# Procedure, shortened: as §1
# PfCRT^3D7 [5] = molecular target: T1, PfCRT^3D7; experiment: cell-based; format: cell-based; conditions: PfCRT3D7 oocytes; for Uptake of [3H]CQ (% PfCRT3D7 control), trans-stimulation: total [3H]CQ transport, normalised to the oocyte type control; for PfCRT-mediated [3H]CQ transport, trans-stimulation (% PfCRT3D7 control): normalised to oocyte type control
# Procedure, shortened: (§2)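 Transport measured in Xenopus oocytes expressing the transporters, 1.5 h at 27.5 °C in ND96 pH 5.5 unless noted. For trans-stimulation, VF-6 injected in 25 nL ND96 at pH 5.0–7.0 or Na^+-free (choline) buffer; intracellular levels based on ~400 nL oocyte volume. Ten oocytes per treatment, ≥4 experiments.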
# PfCRT^Dd2 [6] = molecular target: T2, PfCRT^Dd2; experiment: cell-based; format: cell-based; conditions: for Uptake of [3H]CQ (% PfCRTDd2 control), trans-stimulation / PfCRT-mediated [3H]CQ transport, trans-stimulation (% PfCRTDd2 control): PfCRTDd2 oocytes; for Uptake of [3H]CQ (% PfCRTDd2 control), trans-stimulation: total [3H]CQ transport, normalised to the oocyte type control; for PfCRT-mediated [3H]CQ transport, trans-stimulation (% PfCRTDd2 control): normalised to oocyte type control; for [3H]CQ transport (% PfCRTDd2 control), trans-stimulation, PfCRTDd2: PfCRT-mediated component (background subtracted), mean ± SEM, SEM
# Procedure, shortened: as §2
# PfNT1 = molecular target: T4, PfNT1 (Plasmodium falciparum, UniProt Q8IDM6); experiment: cell-based; format: cell-based; conditions: PfNT1 oocytes, total [3H]CQ transport, normalised to the oocyte type control
# T4 construct: expressed in transfected cells; host or cells: Xenopus laevis oocytes (stage V-VI), cRNA-injected
# T4 sequence (Q8IDM6 whole entry): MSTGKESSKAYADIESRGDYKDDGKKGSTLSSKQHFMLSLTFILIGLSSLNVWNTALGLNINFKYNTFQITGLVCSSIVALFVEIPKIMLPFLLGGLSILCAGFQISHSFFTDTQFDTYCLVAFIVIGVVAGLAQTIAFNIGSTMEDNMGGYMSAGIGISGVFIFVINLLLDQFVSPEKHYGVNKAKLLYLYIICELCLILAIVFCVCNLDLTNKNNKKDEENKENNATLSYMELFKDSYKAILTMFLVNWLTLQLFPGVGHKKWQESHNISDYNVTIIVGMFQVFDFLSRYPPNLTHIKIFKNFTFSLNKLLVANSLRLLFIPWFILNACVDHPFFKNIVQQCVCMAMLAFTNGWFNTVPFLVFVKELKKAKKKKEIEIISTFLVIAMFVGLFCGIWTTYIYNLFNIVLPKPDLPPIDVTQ
# Procedure, shortened: as §2
# PfCRT^Ecu1110 [7] = molecular target: T3, PfCRT^Ecu1110; experiment: cell-based; format: cell-based; conditions: for Uptake of [3H]CQ (% PfCRTEcu1110 control), trans-stimulation / PfCRT-mediated [3H]CQ transport, trans-stimulation (% PfCRTEcu1110 control): PfCRTEcu1110 oocytes; for Uptake of [3H]CQ (% PfCRTEcu1110 control), trans-stimulation: total [3H]CQ transport, normalised to the oocyte type control; for PfCRT-mediated [3H]CQ transport, trans-stimulation (% PfCRTEcu1110 control): normalised to oocyte type control; for [3H]CQ transport (% PfCRTDd2 control), trans-stimulation, PfCRTEcu1110: PfCRT-mediated component (background subtracted), sheet title says normalised to PfCRTDd2 control, mean ± SEM, SEM
# Procedure, shortened: as §2
# non-expressing oocytes [8] = format: cell-based, Xenopus laevis; conditions: non-expressing oocytes, total [3H]CQ transport, normalised to the oocyte type control
# Procedure, shortened: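 Oocytes (ten per treatment, ≥4 independent frogs/days) were preloaded by injecting VF-6 in 25 nL ND96 at pH 5.0, 5.5, 6.0 or 7.0, or Na^+-free choline buffer, then uptake run 1.5 h, 27.5 °C, ND96 pH 5.5 by default. Internal concentrations assumed ~400 nL oocyte volume.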
# [9] = [test solute]i = 45 mM (30 mM for some solutes due to solubility)
# [10] = [test solute]i = 5 mM (intracellular)
# [11] = [test solute]i = 45 mM (intracellular; 30 mM for some solutes due to solubility)
# [12] = [test solute]i = 5 mM (injected)
# T1 sequence (Q8IBZ9 59-398): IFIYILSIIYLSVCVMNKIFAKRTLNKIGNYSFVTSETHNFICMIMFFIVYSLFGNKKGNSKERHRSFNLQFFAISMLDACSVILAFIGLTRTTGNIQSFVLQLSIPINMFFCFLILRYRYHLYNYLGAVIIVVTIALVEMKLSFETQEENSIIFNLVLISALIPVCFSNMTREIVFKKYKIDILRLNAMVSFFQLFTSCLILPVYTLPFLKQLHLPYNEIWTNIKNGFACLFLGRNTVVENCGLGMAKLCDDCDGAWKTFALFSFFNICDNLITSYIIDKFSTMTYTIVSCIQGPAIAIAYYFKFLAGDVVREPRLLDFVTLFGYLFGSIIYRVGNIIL
substance,measurement,setting,value
PENF [PEF-4],"Uptake of [3H]CQ (% PfCRT3D7 control), cis-inhibition",PfCRT^3D7 [1]; [test solute] = 0.5 mM,100 ± 5.3 % PfCRT3D7 control
same,"Uptake of [3H]CQ (% PfCRT3D7 control), cis-inhibition",PfCRT^3D7 [1]; [test solute] = 1 mM,98 ± 3.5 % PfCRT3D7 control
same,"Uptake of [3H]CQ (% PfCRT3D7 control), cis-inhibition",PfCRT^3D7 [1]; [test solute] = 2 mM,100 ± 4.4 % PfCRT3D7 control
same,"Uptake of [3H]CQ (% non-expressing oocyte control), cis-inhibition",non-expressing oocytes [2]; [test solute] = 0.5 mM,99 ± 5.8 % non-expressing oocyte control
same,"Uptake of [3H]CQ (% non-expressing oocyte control), cis-inhibition",non-expressing oocytes [2]; [test solute] = 1 mM,98 ± 4.6 % non-expressing oocyte control
same,"Uptake of [3H]CQ (% non-expressing oocyte control), cis-inhibition",non-expressing oocytes [2]; [test solute] = 2 mM,99 ± 4.4 % non-expressing oocyte control
same,"PfCRT-mediated [3H]CQ transport, cis-inhibition (% PfCRTDd2 control)",PfCRT^Dd2 [3]; [test solute] = 0.5 mM,52 ± 2.0 % PfCRTDd2 control
same,"PfCRT-mediated [3H]CQ transport, cis-inhibition (% PfCRTDd2 control)",PfCRT^Dd2 [3]; [test solute] = 1 mM,37 ± 2.1 % PfCRTDd2 control
same,"PfCRT-mediated [3H]CQ transport, cis-inhibition (% PfCRTDd2 control)",PfCRT^Dd2 [3]; [test solute] = 2 mM,17 ± 0.3 % PfCRTDd2 control
same,"Uptake of [3H]CQ (% PfCRTEcu1110 control), cis-inhibition",PfCRT^Ecu1110 [4]; [test solute] = 0.5 mM,55 ± 4.2 % PfCRTEcu1110 control
same,"Uptake of [3H]CQ (% PfCRTEcu1110 control), cis-inhibition",PfCRT^Ecu1110 [4]; [test solute] = 1 mM,45 ± 4.7 % PfCRTEcu1110 control
same,"Uptake of [3H]CQ (% PfCRTEcu1110 control), cis-inhibition",PfCRT^Ecu1110 [4]; [test solute] = 2 mM,34 ± 3.4 % PfCRTEcu1110 control
same,"PfCRT-mediated [3H]CQ transport, cis-inhibition (% PfCRTEcu1110 control)",PfCRT^Ecu1110 [4]; [test solute] = 0.5 mM,49 ± 2.6 % PfCRTEcu1110 control
same,"PfCRT-mediated [3H]CQ transport, cis-inhibition (% PfCRTEcu1110 control)",PfCRT^Ecu1110 [4]; [test solute] = 1 mM,40 ± 3.5 % PfCRTEcu1110 control
same,"PfCRT-mediated [3H]CQ transport, cis-inhibition (% PfCRTEcu1110 control)",PfCRT^Ecu1110 [4]; [test solute] = 2 mM,28 ± 2.1 % PfCRTEcu1110 control
same,"[3H]CQ transport (% PfCRTEcu1110 control), cis-inhibition, PfCRTEcu1110",PfCRT^Ecu1110 [4]; [test solute] = 0.5 mM,15 ± 0.1 % PfCRTEcu1110 control
same,"[3H]CQ transport (% PfCRTEcu1110 control), cis-inhibition, PfCRTEcu1110",PfCRT^Ecu1110 [4]; [test solute] = 1 mM,13 ± 0.3 % PfCRTEcu1110 control
same,"[3H]CQ transport (% PfCRTEcu1110 control), cis-inhibition, PfCRTEcu1110",PfCRT^Ecu1110 [4]; [test solute] = 2 mM,9.0 ± 0.01 % PfCRTEcu1110 control
same,"Uptake of [3H]CQ (% PfCRT3D7 control), trans-stimulation",PfCRT^3D7 [5]; [test solute]i = 5 mM,135 ± 6.8 % PfCRT3D7 control
same,"Uptake of [3H]CQ (% PfCRT3D7 control), trans-stimulation",PfCRT^3D7 [5]; [9],151 ± 8.0 % PfCRT3D7 control
same,"PfCRT-mediated [3H]CQ transport, trans-stimulation (% PfCRT3D7 control)",PfCRT^3D7 [5]; [10],128 ± 3.6 % PfCRT3D7 control
same,"PfCRT-mediated [3H]CQ transport, trans-stimulation (% PfCRT3D7 control)",PfCRT^3D7 [5]; [11],145 ± 4.7 % PfCRT3D7 control
same,"Uptake of [3H]CQ (% PfCRTDd2 control), trans-stimulation",PfCRT^Dd2 [6]; [test solute]i = 5 mM,102 ± 2.2 % PfCRTDd2 control
same,"Uptake of [3H]CQ (% PfCRTDd2 control), trans-stimulation",PfCRT^Dd2 [6]; [9],99 ± 2.8 % PfCRTDd2 control
same,"PfCRT-mediated [3H]CQ transport, trans-stimulation (% PfCRTDd2 control)",PfCRT^Dd2 [6]; [10],100 ± 3.2 % PfCRTDd2 control
same,"PfCRT-mediated [3H]CQ transport, trans-stimulation (% PfCRTDd2 control)",PfCRT^Dd2 [6]; [11],97 ± 3.2 % PfCRTDd2 control
same,"[3H]CQ transport (% PfCRTDd2 control), trans-stimulation, PfCRTDd2",PfCRT^Dd2 [6]; [12],100 ± 3.2 % PfCRTDd2 control
same,"[3H]CQ transport (% PfCRTDd2 control), trans-stimulation, PfCRTDd2",PfCRT^Dd2 [6]; [9],97 ± 3.2 % PfCRTDd2 control
same,"Uptake of [3H]CQ (% PfNT1 control), trans-stimulation",PfNT1; [test solute]i = 5 mM,101 ± 2.2 % PfNT1 control
same,"Uptake of [3H]CQ (% PfNT1 control), trans-stimulation",PfNT1; [9],99 ± 2.7 % PfNT1 control
same,"Uptake of [3H]CQ (% PfCRTEcu1110 control), trans-stimulation",PfCRT^Ecu1110 [7]; [test solute]i = 5 mM,121 ± 3.2 % PfCRTEcu1110 control
same,"Uptake of [3H]CQ (% PfCRTEcu1110 control), trans-stimulation",PfCRT^Ecu1110 [7]; [9],132 ± 3.7 % PfCRTEcu1110 control
same,"PfCRT-mediated [3H]CQ transport, trans-stimulation (% PfCRTEcu1110 control)",PfCRT^Ecu1110 [7]; [10],118 ± 1.1 % PfCRTEcu1110 control
same,"PfCRT-mediated [3H]CQ transport, trans-stimulation (% PfCRTEcu1110 control)",PfCRT^Ecu1110 [7]; [11],128 ± 2.0 % PfCRTEcu1110 control
same,"[3H]CQ transport (% PfCRTDd2 control), trans-stimulation, PfCRTEcu1110",PfCRT^Ecu1110 [7]; [12],36 ± 1.6 % PfCRTEcu1110 control
same,"[3H]CQ transport (% PfCRTDd2 control), trans-stimulation, PfCRTEcu1110",PfCRT^Ecu1110 [7]; [9],39 ± 1.3 % PfCRTEcu1110 control
same,"Uptake of [3H]CQ (% non-expressing oocyte control), trans-stimulation",non-expressing oocytes [8]; [test solute]i = 5 mM,97 ± 3.5 % non-expressing oocyte control
same,"Uptake of [3H]CQ (% non-expressing oocyte control), trans-stimulation",non-expressing oocytes [8]; [9],100 ± 3.2 % non-expressing oocyte control
